± gives the expanded uncertainty stated by the source.
Settings: Liquid, isochoric method

CCCCCCn1cc[n+](C)c1.F[B-](F)(F)F [1-hexyl-3-methylimidazolium tetrafluoroborate]
mass density (219.92 K, 2501.7 kPa): 1205.15 ± 1.3 kg/m3
mass density (225.14 K, 11244 kPa): 1204.69 ± 1.3 kg/m3
mass density (230.79 K, 1012.8 kPa): 1196.2 ± 1.3 kg/m3
mass density (231.39 K, 21744 kPa): 1204.14 ± 1.3 kg/m3
mass density (236.44 K, 10093 kPa): 1195.71 ± 1.3 kg/m3
mass density (236.46 K, 30111 kPa): 1203.69 ± 1.3 kg/m3
mass density (242.31 K, 19417 kPa): 1195.2 ± 1.3 kg/m3
mass density (243.65 K, 1941.6 kPa): 1186.98 ± 1.3 kg/m3
mass density (243.68 K, 41792 kPa): 1203.05 ± 1.3 kg/m3
mass density (248.82 K, 49885 kPa): 1202.6 ± 1.3 kg/m3
mass density (249.02 K, 10085 kPa): 1186.52 ± 1.3 kg/m3
mass density (249.02 K, 30013 kPa): 1194.61 ± 1.3 kg/m3
mass density (255.69 K, 20148 kPa): 1185.95 ± 1.3 kg/m3
mass density (255.99 K, 40643 kPa): 1194.01 ± 1.3 kg/m3
mass density (256.48 K, 1742.5 kPa): 1177.35 ± 1.3 kg/m3
mass density (262.31 K, 10140 kPa): 1176.87 ± 1.3 kg/m3
mass density (262.31 K, 30102 kPa): 1185.39 ± 1.3 kg/m3
mass density (263.02 K, 51186 kPa): 1193.4 ± 1.3 kg/m3
mass density (268.9 K, 59865 kPa): 1192.9 ± 1.3 kg/m3
mass density (269.12 K, 19855 kPa): 1176.3 ± 1.3 kg/m3
mass density (269.39 K, 40201 kPa): 1184.79 ± 1.3 kg/m3
mass density (269.9 K, 2119.2 kPa): 1166.18 ± 1.3 kg/m3
mass density (275.8 K, 10046 kPa): 1165.7 ± 1.3 kg/m3
mass density (275.8 K, 29402 kPa): 1175.74 ± 1.3 kg/m3
mass density (276.43 K, 50285 kPa): 1184.19 ± 1.3 kg/m3
mass density (283.5 K, 20904 kPa): 1165.06 ± 1.3 kg/m3
mass density (283.57 K, 60349 kPa): 1183.59 ± 1.3 kg/m3
mass density (283.61 K, 39900 kPa): 1175.1 ± 1.3 kg/m3
mass density (284.27 K, 2189.9 kPa): 1156.39 ± 1.2 kg/m3
mass density (290.66 K, 30442 kPa): 1164.48 ± 1.3 kg/m3
mass density (290.67 K, 30768 kPa): 1165.27 ± 1.3 kg/m3
mass density (290.73 K, 10282 kPa): 1155.88 ± 1.2 kg/m3
mass density (290.73 K, 29904 kPa): 1164.49 ± 1.3 kg/m3
mass density (290.94 K, 49928 kPa): 1174.49 ± 1.3 kg/m3
mass density (298.15 K, 104 kPa): 1146.14 ± 1.2 kg/m3
mass density (298.15 K, 39688 kPa): 1164.06 ± 1.3 kg/m3
mass density (298.15 K, 40557 kPa): 1164.66 ± 1.3 kg/m3
mass density (298.17 K, 39707 kPa): 1163.88 ± 1.3 kg/m3
mass density (298.17 K, 40239 kPa): 1163.87 ± 1.3 kg/m3
mass density (298.52 K, 20112 kPa): 1155.26 ± 1.2 kg/m3
mass density (299.11 K, 712.5 kPa): 1145.27 ± 1.2 kg/m3
mass density (299.38 K, 61164 kPa): 1173.79 ± 1.3 kg/m3
mass density (305.93 K, 49286 kPa): 1163.44 ± 1.3 kg/m3
mass density (305.93 K, 49685 kPa): 1163.24 ± 1.3 kg/m3
mass density (306.82 K, 10007 kPa): 1144.66 ± 1.2 kg/m3
mass density (306.83 K, 30854 kPa): 1154.59 ± 1.2 kg/m3
mass density (314.42 K, 60539 kPa): 1162.55 ± 1.3 kg/m3
mass density (315.25 K, 20171 kPa): 1144 ± 1.2 kg/m3
mass density (315.38 K, 41468 kPa): 1153.9 ± 1.2 kg/m3
mass density (315.84 K, 1234.2 kPa): 1133.94 ± 1.2 kg/m3
mass density (322.71 K, 50376 kPa): 1153.32 ± 1.2 kg/m3
mass density (323.55 K, 9964.4 kPa): 1133.35 ± 1.2 kg/m3
mass density (323.55 K, 29837 kPa): 1143.36 ± 1.2 kg/m3
mass density (330.59 K, 59794 kPa): 1152.68 ± 1.2 kg/m3
mass density (332.16 K, 39991 kPa): 1142.68 ± 1.2 kg/m3
mass density (332.36 K, 19953 kPa): 1132.67 ± 1.2 kg/m3
mass density (333.47 K, 1089.8 kPa): 1121.71 ± 1.2 kg/m3
mass density (340.92 K, 49956 kPa): 1141.99 ± 1.2 kg/m3
mass density (341.61 K, 9779.8 kPa): 1121.11 ± 1.2 kg/m3
mass density (341.63 K, 29941 kPa): 1131.97 ± 1.2 kg/m3
mass density (349.19 K, 1374.3 kPa): 1111.71 ± 1.2 kg/m3
mass density (349.88 K, 60027 kPa): 1141.28 ± 1.2 kg/m3
mass density (350.49 K, 39672 kPa): 1131.28 ± 1.2 kg/m3
mass density (351.2 K, 20298 kPa): 1120.38 ± 1.2 kg/m3
mass density (357.12 K, 9595.1 kPa): 1111.13 ± 1.2 kg/m3
mass density (357.12 K, 26381 kPa): 1119.93 ± 1.2 kg/m3
mass density (357.12 K, 46792 kPa): 1130.77 ± 1.2 kg/m3

CCn1cc[n+](C)c1.O=S(=O)([O-])C(F)(F)F [1-ethyl-3-methylimidazolium trifluoromethanesulfonate]
mass density (264.14 K, 39698 kPa): 1434.17 ± 1.6 kg/m3
mass density (264.21 K, 29714 kPa): 1429.2 ± 1.6 kg/m3
mass density (264.31 K, 10134 kPa): 1419.79 ± 1.6 kg/m3
mass density (265.07 K, 1265.2 kPa): 1414.41 ± 1.6 kg/m3
mass density (271.03 K, 50162 kPa): 1433.46 ± 1.6 kg/m3
mass density (271.03 K, 50199 kPa): 1433.45 ± 1.6 kg/m3
mass density (271.04 K, 9677.3 kPa): 1413.82 ± 1.6 kg/m3
mass density (271.04 K, 11097 kPa): 1414.79 ± 1.6 kg/m3
mass density (271.04 K, 19702 kPa): 1419.12 ± 1.6 kg/m3
mass density (271.04 K, 29909 kPa): 1424.08 ± 1.6 kg/m3
mass density (271.04 K, 30156 kPa): 1424.07 ± 1.6 kg/m3
mass density (271.04 K, 40035 kPa): 1428.5 ± 1.6 kg/m3
mass density (271.04 K, 40309 kPa): 1428.49 ± 1.6 kg/m3
mass density (271.04 K, 60071 kPa): 1437.92 ± 1.6 kg/m3
mass density (271.05 K, 20286 kPa): 1419.1 ± 1.6 kg/m3
mass density (271.4 K, 1190.5 kPa): 1408.62 ± 1.6 kg/m3
mass density (272.28 K, 2655.9 kPa): 1408.53 ± 1.6 kg/m3
mass density (277.45 K, 49840 kPa): 1427.83 ± 1.6 kg/m3
mass density (277.68 K, 39776 kPa): 1423.39 ± 1.6 kg/m3
mass density (277.8 K, 30125 kPa): 1418.42 ± 1.6 kg/m3
mass density (277.84 K, 10946 kPa): 1407.96 ± 1.6 kg/m3
mass density (277.84 K, 19967 kPa): 1413.12 ± 1.6 kg/m3
mass density (284.58 K, 20183 kPa): 1407.3 ± 1.6 kg/m3
mass density (284.65 K, 40227 kPa): 1417.71 ± 1.6 kg/m3
mass density (284.69 K, 60421 kPa): 1427.09 ± 1.6 kg/m3
mass density (284.73 K, 50105 kPa): 1422.67 ± 1.6 kg/m3
mass density (284.93 K, 30204 kPa): 1412.4 ± 1.6 kg/m3
mass density (285.1 K, 728.1 kPa): 1397.61 ± 1.5 kg/m3
mass density (291.42 K, 29930 kPa): 1406.61 ± 1.6 kg/m3
mass density (291.49 K, 49838 kPa): 1417.02 ± 1.6 kg/m3
mass density (291.92 K, 10046 kPa): 1396.94 ± 1.5 kg/m3
mass density (291.92 K, 41361 kPa): 1412.67 ± 1.6 kg/m3
mass density (291.94 K, 40088 kPa): 1411.69 ± 1.6 kg/m3
mass density (292.62 K, 61503 kPa): 1421.86 ± 1.6 kg/m3
mass density (298.19 K, 124.2 kPa): 1386.18 ± 1.5 kg/m3
mass density (298.19 K, 39944 kPa): 1405.91 ± 1.6 kg/m3
mass density (299.14 K, 60111 kPa): 1416.26 ± 1.6 kg/m3
mass density (299.19 K, 50157 kPa): 1410.96 ± 1.6 kg/m3
mass density (299.54 K, 20406 kPa): 1396.18 ± 1.5 kg/m3
mass density (300.18 K, 1687.5 kPa): 1385.35 ± 1.5 kg/m3
mass density (305.75 K, 49851 kPa): 1405.17 ± 1.6 kg/m3
mass density (306.58 K, 60078 kPa): 1410.23 ± 1.6 kg/m3
mass density (306.75 K, 10122 kPa): 1384.72 ± 1.5 kg/m3
mass density (306.76 K, 29599 kPa): 1395.48 ± 1.5 kg/m3
mass density (313.35 K, 59888 kPa): 1404.41 ± 1.6 kg/m3
mass density (314.04 K, 19458 kPa): 1384.01 ± 1.5 kg/m3
mass density (314.64 K, 40402 kPa): 1394.69 ± 1.5 kg/m3
mass density (315.41 K, 1377.5 kPa): 1372.29 ± 1.5 kg/m3
mass density (322.27 K, 50268 kPa): 1393.94 ± 1.5 kg/m3
mass density (322.29 K, 30090 kPa): 1383.21 ± 1.5 kg/m3
mass density (322.3 K, 9799.1 kPa): 1371.63 ± 1.5 kg/m3
mass density (329.98 K, 59857 kPa): 1393.19 ± 1.5 kg/m3
mass density (330.68 K, 40501 kPa): 1382.4 ± 1.5 kg/m3
mass density (331.49 K, 1256.6 kPa): 1358.62 ± 1.5 kg/m3
mass density (332.56 K, 22229 kPa): 1370.66 ± 1.5 kg/m3
mass density (338.11 K, 9067.3 kPa): 1358 ± 1.5 kg/m3
mass density (338.47 K, 50063 kPa): 1381.64 ± 1.5 kg/m3
mass density (339.28 K, 30155 kPa): 1370.02 ± 1.5 kg/m3
mass density (346.74 K, 59641 kPa): 1380.85 ± 1.5 kg/m3
mass density (347.76 K, 20122 kPa): 1357.09 ± 1.5 kg/m3
mass density (347.76 K, 40116 kPa): 1369.21 ± 1.5 kg/m3

Reference: the NIST ThermoML archive (doi:10.1021/je200903m)
